How the values were obtained:
Type in all cases: cell-based
Conditions in all cases: 24 h incubation, visual reading
[1] = system: Staphylococcus aureus MRSA ATCC 43300; experiment: MIC assay, S. aureus MRSA ATCC 43300
Experimental: (§1) Antimicrobial activity of compounds was tested against a number of bacterial strains, including Staphylococcus aureus (MRSA ATCC 43300, GISA NRS17, VISA NRS1, MRSA clinical isolate, daptomycin resistant clinical isolate), Streptococcus pneumoniae (MDR ATCC 700677), Enterococcus faecalis (VanA clinical isolate) and Enterococcus faecium (MDR Van A ATCC 51559).
(§2) All compounds were prepared to 160 μg/ml solution in water from a stock solution of 1 mM concentration.
(§3) The compounds, along with standard antibiotics were serially diluted twofold across the wells of 96-well non-binding surface plates (NBS, Corning). Standards ranged from 64 μg/ml to 0.03 μg/ml and compounds from 8 μg/ml to 0.003 μg/ml with final volumes of 50 μL per well. Gram positive bacteria were cultured in Muller Hinton broth (MHB) (Bacto laboratories, Cat. no. 211443) at 37° C. overnight. A sample of each culture was then diluted 40-fold in fresh MHB broth and incubated at 37° C. for 2-3 hrs. The resultant mid-log phase cultures were diluted to the final concentration of 5×10e5 CFU/mL, then 50 μL was added to each well of the compound-containing 96-well plates. All the plates were covered and incubated at 37° C. for 24 h. MICs were the lowest concentration showing no visible growth.
(§4) MICs were determined visually at 24 hr incubation and the MIC was defined as the lowest concentration with which no growth was visible after incubation. Both MIC and MBC were determined by visual inspection only.

[2] = system: Enterococcus faecium MDR Van A ATCC 51559; experiment: MIC assay, E. faecium MDR Van A ATCC 51559
Experimental: as §1, §2, §3, §4

[3] = system: Streptococcus pneumoniae MDR ATCC 700677; experiment: MIC assay, S. pneumoniae MDR ATCC 700677
Experimental: as §1, §2, §3, §4

Row | Minimum Inhibitory Concentration (MIC) Staph. aureus ATCC43300 [1] | Minimum Inhibitory Concentration (MIC) E. faecium ATCC51559 [2] | Minimum Inhibitory Concentration (MIC) S. pneumoniae ATCC 700677 [3] | SMILES
1 | xxx (xxx = 0.1-<1) | x (x = >4) | xxx (xxx = 0.1-<1) | CCCCCCCC(=O)N[C@@H](CCCCN)C(=O)N[C@@H](CCCCN)C(=O)NCCNC(=O)[C@H]1NC(=O)[C@H]2NC(=O)[C@H](NC(=O)[C@@H]3NC(=O)[C@H](CC(N)=O)NC(=O)[C@H](NC(=O)[C@@H](CC(C)C)NC)[C@H](O)c4ccc(c(Cl)c4)Oc4cc3cc(c4O[C@@H]3O[C@H](CO)[C@@H](O)[C@H](O)[C@H]3O[C@H]3C[C@](C)(N)[C@H](O)[C@H](C)O3)Oc3ccc(cc3Cl)[C@H]2O)c2ccc(O)c(c2)-c2c(O)cc(O)cc21 [MCC_005164]
2 | xxxxx (xxxxx = <0.01) | xx (xx = 1-4) | xxxxx (xxxxx = <0.01) | CCCCCCCOc1ccc(C(=O)NC(CCCCN)C(=O)NC(CCCCN)C(=O)NC(CCCCNC(=O)C2NC(=O)C3NC(=O)C(NC(=O)C4NC(=O)C(CC(N)=O)NC(=O)C(NC(=O)C(CC(C)C)NC)C(O)c5ccc(c(Cl)c5)Oc5cc4cc(c5OC4OC(CO)C(O)C(O)C4OC4CC(C)(N)C(O)C(C)O4)Oc4ccc(cc4Cl)C3O)c3ccc(O)c(c3)-c3c(O)cc(O)cc32)C(=O)NC)cc1 (centres unmarked) [MCC_000503]
3 | xxxx (xxxx = 0.01-<0.1) | x (x = >4) | xxx (xxx = 0.1-<1) | CCCCCCC(CCCC)C(=O)NC(CCCCN)C(=O)NC(CCCCN)C(=O)NC(CCCCNC(=O)C1NC(=O)C2NC(=O)C(NC(=O)C3NC(=O)C(CC(N)=O)NC(=O)C(NC(=O)C(CC(C)C)NC)C(O)c4ccc(c(Cl)c4)Oc4cc3cc(c4OC3OC(CO)C(O)C(O)C3OC3CC(C)(N)C(O)C(C)O3)Oc3ccc(cc3Cl)C2O)c2ccc(O)c(c2)-c2c(O)cc(O)cc21)C(=O)NC (centres unmarked) [MCC_000496]
4 | xxx (xxx = 0.1-<1) | x (x = >4) | xxx (xxx = 0.1-<1) | CCCCCCCCCCC(=O)N[C@@H](CCCCN)C(=O)N[C@@H](CCCCN)C(=O)N[C@@H](CCCCNC(=O)CNC(=O)[C@H]1NC(=O)[C@H]2NC(=O)[C@H](NC(=O)[C@@H]3NC(=O)[C@H](CC(N)=O)NC(=O)[C@H](NC(=O)[C@@H](CC(C)C)NC)[C@H](O)c4ccc(c(Cl)c4)Oc4cc3cc(c4O[C@@H]3O[C@H](CO)[C@@H](O)[C@H](O)[C@H]3O[C@H]3C[C@](C)(N)[C@H](O)[C@H](C)O3)Oc3ccc(cc3Cl)[C@H]2O)c2ccc(O)c(c2)-c2c(O)cc(O)cc21)C(=O)O [MCC_000225]
5 | xxx (xxx = 0.1-<1) | x (x = >4) | xxx (xxx = 0.1-<1) | CCCCCCCCCC(=O)N[C@@H](CCCCN(CC)CC)C(=O)N[C@@H](CCCCNC(=O)[C@H]1NC(=O)[C@H]2NC(=O)[C@H](NC(=O)[C@@H]3NC(=O)[C@H](CC(N)=O)NC(=O)[C@H](NC(=O)[C@@H](CC(C)C)NC)[C@H](O)c4ccc(c(Cl)c4)Oc4cc3cc(c4O[C@@H]3O[C@H](CO)[C@@H](O)[C@H](O)[C@H]3O[C@H]3C[C@](C)(N)[C@H](O)[C@H](C)O3)Oc3ccc(cc3Cl)[C@H]2O)c2ccc(O)c(c2)-c2c(O)cc(O)cc21)C(=O)O [MCC_007330]
6 | xxxxx (xxxxx = <0.01) | xx (xx = 1-4) | xxxxx (xxxxx = <0.01) | CCCCCCCCCCCCCC(=O)N[C@@H](CCCCN)C(=O)N[C@@H](CCCCNC(=O)[C@H]1NC(=O)[C@H]2NC(=O)[C@H](NC(=O)[C@@H]3NC(=O)[C@H](CC(N)=O)NC(=O)[C@H](NC(=O)[C@@H](CC(C)C)NC)[C@H](O)c4ccc(c(Cl)c4)Oc4cc3cc(c4O[C@@H]3O[C@H](CO)[C@@H](O)[C@H](O)[C@H]3O[C@H]3C[C@](C)(N)[C@H](O)[C@H](C)O3)Oc3ccc(cc3Cl)[C@H]2O)c2ccc(O)c(c2)-c2c(O)cc(O)cc21)C(=O)NC [MCC_000627]
7 | xx (xx = 1-4) | x (x = >4) | xx (xx = 1-4) | CCCCC=CCCCCCCCC(=O)NC(CCCCN)C(=O)NC(CCCCN)C(=O)NC(CCCCNC(=O)C1NC(=O)C2NC(=O)C(NC(=O)C3NC(=O)C(CC(N)=O)NC(=O)C(NC(=O)C(CC(C)C)NC)C(O)c4ccc(c(Cl)c4)Oc4cc3cc(c4OC3OC(CO)C(O)C(O)C3OC3CC(C)(N)C(O)C(C)O3)Oc3ccc(cc3Cl)C2O)c2ccc(O)c(c2)-c2c(O)cc(O)cc21)C(=O)NC (centres unmarked) [MCC_000498]
8 | xxxx (xxxx = 0.01-<0.1) | x (x = >4) | xxxxx (xxxxx = <0.01) | CCCCCOc1ccc(C(=O)NC(CCCCN)C(=O)NC(CCCCN)C(=O)NC(CCCCNC(=O)C2NC(=O)C3NC(=O)C(NC(=O)C4NC(=O)C(CC(N)=O)NC(=O)C(NC(=O)C(CC(C)C)NC)C(O)c5ccc(c(Cl)c5)Oc5cc4cc(c5OC4OC(CO)C(O)C(O)C4OC4CC(C)(N)C(O)C(C)O4)Oc4ccc(cc4Cl)C3O)c3ccc(O)c(c3)-c3c(O)cc(O)cc32)C(=O)NC)cc1 (centres unmarked) [MCC_000501]

The remaining lines, values behind:

Row | SMILES | Minimum Inhibitory Concentration (MIC) Staph. aureus ATCC43300 [1] | Minimum Inhibitory Concentration (MIC) E. faecium ATCC51559 [2] | Minimum Inhibitory Concentration (MIC) S. pneumoniae ATCC 700677 [3]
9 | CCCCCCCCCC(=O)N[C@@H](CCCNC(=N)N)C(=O)N1CCC(CNC(=O)[C@H]2NC(=O)[C@H]3NC(=O)[C@H](NC(=O)[C@@H]4NC(=O)[C@H](CC(N)=O)NC(=O)[C@H](NC(=O)[C@@H](CC(C)C)NC)[C@H](O)c5ccc(c(Cl)c5)Oc5cc4cc(c5O[C@@H]4O[C@H](CO)[C@@H](O)[C@H](O)[C@H]4O[C@H]4C[C@](C)(N)[C@H](O)[C@H](C)O4)Oc4ccc(cc4Cl)[C@H]3O)c3ccc(O)c(c3)-c3c(O)cc(O)cc32)CC1 [MCC_005484] | xxxxx (xxxxx = <0.01) | x (x = >4) | xxxxx (xxxxx = <0.01)
10 | CNC(=O)[C@H](CCCCNC(=O)[C@H]1NC(=O)[C@H]2NC(=O)[C@H](NC(=O)[C@@H]3NC(=O)[C@H](CC(N)=O)NC(=O)[C@H](NC(=O)[C@@H](CC(C)C)NC)[C@H](O)c4ccc(c(Cl)c4)Oc4cc3cc(c4O[C@@H]3O[C@H](CO)[C@@H](O)[C@H](O)[C@H]3O[C@H]3C[C@](C)(N)[C@H](O)[C@H](C)O3)Oc3ccc(cc3Cl)[C@H]2O)c2ccc(O)c(c2)-c2c(O)cc(O)cc21)NC(=O)[C@H](CCCCN)NC(=O)[C@H](CCCCN)NC(=O)CNC(=O)c1ccc(Oc2ccccc2)cc1 [MCC_000647] | xxx (xxx = 0.1-<1) | x (x = >4) | xxx (xxx = 0.1-<1)
11 | CCCCCCCCCCCN1CCC(C(=O)N[C@@H](CCCCN)C(=O)N[C@@H](CCCCN)C(=O)N[C@@H](CCCCNC(=O)[C@H]2NC(=O)[C@H]3NC(=O)[C@H](NC(=O)[C@@H]4NC(=O)[C@H](CC(N)=O)NC(=O)[C@H](NC(=O)[C@@H](CC(C)C)NC)[C@H](O)c5ccc(c(Cl)c5)Oc5cc4cc(c5O[C@@H]4O[C@H](CO)[C@@H](O)[C@H](O)[C@H]4O[C@H]4C[C@](C)(N)[C@H](O)[C@H](C)O4)Oc4ccc(cc4Cl)[C@H]3O)c3ccc(O)c(c3)-c3c(O)cc(O)cc32)C(N)=O)CC1 [MCC_004818] | xxxx (xxxx = 0.01-<0.1) | xxx (xxx = 0.1-<1) | xxxx (xxxx = 0.01-<0.1)
12 | CCCCCCCCCCCCC(=O)N[C@@H](CCCCN)C(=O)N[C@@H](CCCCN)C(=O)N[C@@H](CCCCN)C(=O)N[C@@H](CCCCNC(=O)[C@H]1NC(=O)[C@H]2NC(=O)[C@H](NC(=O)[C@@H]3NC(=O)[C@H](CC(N)=O)NC(=O)[C@H](NC(=O)[C@@H](CC(C)C)NC)[C@H](O)c4ccc(c(Cl)c4)Oc4cc3cc(c4O[C@@H]3O[C@H](CO)[C@@H](O)[C@H](O)[C@H]3O[C@H]3C[C@](C)(N)[C@H](O)[C@H](C)O3)Oc3ccc(cc3Cl)[C@H]2O)c2ccc(O)c(c2)-c2c(O)cc(O)cc21)C(=O)O [MCC_000350] | xxxxx (xxxxx = <0.01) | xxx (xxx = 0.1-<1) | xxxxx (xxxxx = <0.01)
13 | CCCCCCCCCCCCCC(=O)NCC(=O)N[C@@H](CO)C(=O)N[C@@H](CCCCN)C(=O)N[C@@H](CCCCN)C(=O)N[C@@H](CCCCN)C(=O)N[C@@H](CCCCNC(=O)[C@H]1NC(=O)[C@H]2NC(=O)[C@H](NC(=O)[C@@H]3NC(=O)[C@H](CC(N)=O)NC(=O)[C@H](NC(=O)[C@@H](CC(C)C)NC)[C@H](O)c4ccc(c(Cl)c4)Oc4cc3cc(c4O[C@@H]3O[C@H](CO)[C@@H](O)[C@H](O)[C@H]3O[C@H]3C[C@](C)(N)[C@H](O)[C@H](C)O3)Oc3ccc(cc3Cl)[C@H]2O)c2ccc(O)c(c2)-c2c(O)cc(O)cc21)C(=O)O [MCC_000380] | xxxx (xxxx = 0.01-<0.1) |  | xxxxx (xxxxx = <0.01)

Source: patent US10947271B2, “Antibacterial agents” (THE UNIVERSITY OF QUEENSLAND, priority 2014, dated 2021)
